Reference: US6770649B2, “1-[1-(hetero)aryl-1-perhydroxyalkylmethyl]-piperazine compounds, process for their preparation and pharmaceutical compositions containing them” (Solvay Pharmaceuticals GmbH, priority 2001, dated 2004)
Like-named read-outs stand apart in the source and are kept apart here.

Experiments:
[1] = molecular target: T1, human NK-2 receptor (Homo sapiens, UniProt P21452); assay: Binding power of the test substances to NK-2 receptors in vitro ([3H]-SR 48968 displacement, CHO cell membranes); settings: displacement of [3H]-SR 48968, 90 min incubation, average of at least three measurements, 10^-6 to 10^-10 mol/l, read-out: pKi, affinity to human NK-2 receptors (converted)
T1 construct: expressed in transfected cells; host or cells: CHO cells (membrane preparation)
T1 sequence (P21452 1-398): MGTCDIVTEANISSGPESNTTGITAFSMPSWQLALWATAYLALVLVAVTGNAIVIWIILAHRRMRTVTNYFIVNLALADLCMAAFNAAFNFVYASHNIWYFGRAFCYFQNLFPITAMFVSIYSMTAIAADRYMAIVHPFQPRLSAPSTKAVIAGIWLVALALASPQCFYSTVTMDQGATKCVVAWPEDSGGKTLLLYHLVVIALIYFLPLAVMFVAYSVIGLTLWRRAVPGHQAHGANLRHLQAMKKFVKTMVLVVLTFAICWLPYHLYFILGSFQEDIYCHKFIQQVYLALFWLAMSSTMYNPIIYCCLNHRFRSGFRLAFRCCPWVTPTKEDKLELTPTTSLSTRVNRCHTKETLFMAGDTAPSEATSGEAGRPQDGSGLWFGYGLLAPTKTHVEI
Method: 1. Determination of the Binding Power of the Test Substances to NK-2 Receptors in vitro
The affinity of the test substances to human NK-2 receptors was measured in vitro. The ability of the test substances to displace the selective NK-2 receptor antagonist SR 48968 (=saredutant) used as reference ligand from its corresponding bond was determined.
The receptor binding studies were carried out with radioactively marked [^3H]-SR 48968 (from Amersham) as ligand. For the binding test, different samples of a membrane preparation of CHO cells (=[…]), which express the human NK-2 receptor (for preparation, see N. P. Gerard et al., Journal of Biological Chemistry 265/33 (1990) 20455-20462), were incubated for 90 minutes (=min.) with a solution of the marked ligand, with the incubation mixtures containing no test substance or additions of different concentrations of test substance. Then in each case the membrane-bound ligands in the samples were separated from free ligands by filtration. The fraction remaining in the filter was washed several times with buffer solution, before its radioactivity was measured using a liquid scintillation counter. That concentration which effects half-maximum displacement of the bound reference ligand was determined as IC50 of the respective test substance. The inhibition constant (Ki value) of the test substance was calculated from the respective IC50 value, and was stated as the negative logarithmised value thereof (pKi).
For the compounds of Examples 1 to 39, the affinity to human NK-2 receptors was determined in each case by at least three measurements of the test substances in concentration series of 10^−6 to 10^−10 mol/l. If several measurements were performed, the average thereof was listed each time.

[2] = molecular target: T2, NK-2 receptors (Cavia porcellus, UniProt Q64077); assay: Functional NK-2 antagonism on isolated guinea pig gall-bladder preparations (NKA-induced contraction); type: cell-based; settings: inhibition of contraction caused by NKA 0.1 μmol/l; two hours' incubation; Pirbright-White guinea pig gall-bladder
T2 construct: the NK-2 receptors present in the gall-bladder preparations; from tissue; host or cells: Pirbright-White guinea pig: isolated gall-bladder (A2); anaesthetised whole animal (A3)
T2 sequence (Q64077 1-402): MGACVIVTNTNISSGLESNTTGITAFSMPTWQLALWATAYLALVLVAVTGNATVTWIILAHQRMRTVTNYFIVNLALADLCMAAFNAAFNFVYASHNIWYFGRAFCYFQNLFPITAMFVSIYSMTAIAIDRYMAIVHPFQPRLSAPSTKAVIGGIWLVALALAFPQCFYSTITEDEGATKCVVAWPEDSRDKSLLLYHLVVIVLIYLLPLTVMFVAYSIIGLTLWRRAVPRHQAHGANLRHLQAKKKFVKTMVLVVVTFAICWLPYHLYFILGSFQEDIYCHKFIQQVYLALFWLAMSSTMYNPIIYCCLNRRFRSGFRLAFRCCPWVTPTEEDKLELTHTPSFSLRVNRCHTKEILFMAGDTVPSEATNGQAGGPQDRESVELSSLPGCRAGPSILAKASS
Method: 2. Determination of the Functional Antagonism of the Test Substances on Isolated Guinea Pig Tissue in vitro
The NK-2 receptor-antagonising action of the test substances was determined on isolated gall-bladder preparations from Pirbright-White guinea pigs, held in an oxygen-saturated nutrient solution. To this end, the preparations were fastened on one hand in the nutrient solution to organ holders and on the other hand on a force meter by a thread.
In this test the NK-2 receptors present in the gall-bladder preparations were stimulated with the natural NK-2 receptor agonist neurokinin A (=NKA; 0.1 μmol/l) and the contractions of the preparations caused thereby were measured as contractility in mN (=preliminary value) measured. Then NKA was rinsed out of the preparations with NKA-free solution and the test substances were added in a concentration of 10^−7 mol/l. After two hours' incubation of the preparations with the test substances, the contractions of the preparations then still caused by renewed NKA addition were again measured and the results were given as percentages, relative to the contractions initially measured, caused solely by NKA addition. The concentration of the test substances was increased iteratively in the subsequent experiments as a function of the result in logarithmic whole or half steps, until at least one concentration above or below 50% inhibition of contraction was determined (up to at most 10^−5 mol/l). For each concentration, the average value of inhibition of contraction was calculated from 2 to 4 preparations. In each case, the concentration of half-maximum inhibition (IC50) per test substance was calculated as characteristic variable. In each case the logarithmised value of the IC50 per test substance is given as pIC50 in [mol/l].

[3] = molecular target: T2, NK-2 receptors; assay: NK-2-receptor-antagonistic effectiveness in vivo in anaesthetised guinea pigs (NKA test stimulus); design: species or system guinea pig; settings: for ED50: guinea pig
Excerpt: 3. Determination of the NK-2-receptor-antagonistic Effectiveness of the Test Substances in vivo
The NK-2- and NK-1-antagonistic activities of the test substances were investigated in anaesthetised guinea pigs in each case after intravenous (=i.v.) and oral (=p.o.) administration in vivio. With the present test model it is possible to detect both NK-2-antagonistic effects in three different organ systems (respiratory tracts, colon and circulation) and NK-1-antagonistic effects (rapid drop in blood pressure) in an animal simultaneously.
Pirbright-White guinea pigs of a body weight of 500-700 g were anaesthetised with ketamine/xylazine (67/13 mg/kg subcutaneously, initial dose, further doses administered as required). The animals were provided with an intravenous catheter in order to administer the substance and an intra-arterial catheter to measure the blood pressure. The animals were artificially ventilated via a tracheal cannula and the respiratory pressure was recorded by means of a pressure transducer. A balloon was introduced into the distal colon of the animals for manometric recording of colon motility by means of a pressure transducer. Blood pressure, heart rate, respiratory pressure and colonic pressure were measured continuously for each animal and plotted on a recorder and by means of a digital data-processing system. Neurokinin A (=NKA; 200 pmol/animal) was administered i.v. as a bolus as a test stimulus to stimulate the NK-1- and the NK-2 receptors. An addition of NKA of this type results in a great increase in respiratory pressure (bronchoconstriction) and colonic pressure, and in a biphasic drop in blood pressure. The first phase of hypotension (=phase of maximum hypotension within the first minute after administration of NKA) is mediated via NK-1 receptors, since they can be blocked completely by specific NK-1 receptor antagonists. The second phase of delayed hypotension (=phase of maximum hypotension after 2-5 min.) on the other hand is mediated via NK-2 receptors, since they can be blocked by specific NK-2 receptor antagonists. The doses of the test substances are given as ED50 values which each result in a response to the NKA test stimulus which is reduced to 50% of the initial value, as characteristic variables for the individual measurement parameters bronchoconstriction, colonic pressure and change in blood pressure mediated by NK-1 or NK-2.
The antagonistic effects of the test substances were first investigated in cumulative form, the time of the NKA test stimulus being 1 min. after the administration of the respective doses of the test substances had ended. These ED50 values obtained from cumulative dose effect curves are plotted in Table 2 below. In order additionally to detect the variation over time of the antagonistic effects of the test substances, the action of the NKA test stimulus was determined at different times (1, 30, 60, 90, 120, 150 and 180 min.) after administration of the test substances.

Row | Compound | Ki [1] [nM] | IC50 [2] [nM] | NK-2-receptor-antagonistic activity of colon motility, late drop in blood pressure and respiratory resistance (in words) ([3]; cumulative administration i.v., antagonism detected 1 min. after administration had ended) | ED50 ([3]; iv, cumulative dosing, NKA stimulus 1 min. after administration, NK-2-mediated late drop in blood pressure, read-out: ED50 Blood pressure, i.v. after 1 min. (cumulative)) [µmol/kg] | ED50 ([3]; iv, cumulative dosing, NKA stimulus 1 min. after administration, respiratory resistance (bronchoconstriction), read-out: ED50 Respiratory resistance, i.v. after 1 min. (cumulative)) [µmol/kg] | ED50 ([3]; iv, cumulative dosing, NKA stimulus (200 pmol/animal i.v.) 1 min. after administration, colonic pressure, read-out: ED50 Colonic pressure, i.v. after 1 min. (cumulative)) [µmol/kg] | ED50 ([3]; iv, from AUC of antagonistic effect over 120 min after administration, colonic pressure, read-out: ED50 Colonic pressure, i.v. AUC over 120 min) [µmol/kg] | ED50 ([3]; iv, from AUC over 120 min after administration, NK-2-mediated drop in blood pressure, read-out: ED50 Blood pressure, i.v. AUC over 120 min) [µmol/kg] | ED50 ([3]; iv, from AUC over 120 min after administration, respiratory resistance, read-out: ED50 Respiratory resistance, i.v. AUC over 120 min) [µmol/kg] | ED50 ([3]; po, from AUC over 180 min after administration, NK-2-mediated drop in blood pressure, read-out: ED50 Blood pressure, p.o. AUC over 180 min.) [µmol/kg] | ED50 ([3]; po, from AUC over 180 min after administration, colonic pressure, read-out: ED50 Colonic pressure, p.o. AUC over 180 min.) [µmol/kg] | ED50 ([3]; po, from AUC over 180 min after administration, respiratory resistance, read-out: ED50 Respiratory resistance, p.o. AUC over 180 min.) [µmol/kg]
1 | CN(CC(CCN1CCN(C(c2ccsc2)[C@@H](O)[C@H](O)[C@H](O)CO)CC1)c1ccc(Cl)c(Cl)c1)C(=O)c1ccccc1 (mixture of isomers) [Example 17] | ≤ 10 | 0.2 |  |  |  |  |  |  |  |  |  | 
2 | CN(C[C@@H](CCN1CCN(C(c2ccsc2)[C@H](O)[C@H](O)CO)CC1)c1ccc(Cl)c(Cl)c1)C(=O)c1ccccc1 (stereo partly drawn) [Example 15, N-((2S)-2-(3,4-dichlorophenyl)-4-{4[(2S,3R)-2,3,4-trihydroxy-1-(3-thienyl)butyl]-1-piperazinyl}-butyl)-N-methylbenzamide] | ≤ 10 |  | marked NK-2-receptor-antagonistic activity | 0.114 | 0.079 | 0.041 | 0.009 | 0.047 | 0.042 | 8.6 | 4.5 | 3.2
3 | CN(CC(CCN1CCN(C(c2ccsc2)[C@@H](O)[C@@H](O)[C@H](O)CO)CC1)c1ccc(Cl)c(Cl)c1)C(=O)c1ccccc1 (mixture of isomers) [Example 9] | ≤ 10 | 0.501 |  |  |  |  |  |  |  |  |  | 
4 | CN(CC(CCN1CCN(C(c2ccsc2)[C@H](O)[C@@H](O)[C@H](O)CO)CC1)c1ccc(Cl)c(Cl)c1)C(=O)c1ccccc1 (mixture of isomers) [Example 7] | ≤ 10 | 0.251 |  |  |  |  |  |  |  |  |  | 
